From patent US5760000A (University Technologies International,Inc., priority 1994, dated 1998)
“Also recorded” adds a separate entry of the source. Where two headings read alike, the source gives them in different places.

What was measured:
[1] = molecular target: GnRH binding sites (normal human liver); experiment: GnRH in vitro binding to non-cancerous postmortem human liver membrane preparation; settings: Labeled ligand 125I-[D-Lys6]-GnRH; 95% confidence interval in parentheses; read-out: Receptor Binding Activity (Kd, nM) Normal Human Liver
Procedure: (§1) Cells were grown to confluence as previously described and harvested from the flasks by using a rubber policeman. The cells were washed in normal assay buffer (([…] Tris[hydroxymethyl] aminomethane[Tris]-HCl), containing 1 mM dithiothreitol and 0.5% BSA [fraction-V] (pH 7.6)) and precipitated by centrifugation at 500g for 5 minutes at 4° C.
(§2) The cleaned cells were homogenized in 50 ml of freshly prepared ice cold 25 mM sucrose in assay buffer containing 1 mM Phenylmethanesulphonyl fluoride and 5 mM Ethylenediaminetetraacetic acid, using a glass TEFLON (polytetra-fluoroethylene) homogenizer, followed by centrifugation at 100 ×g for 5 minutes (4° C.). The supernatant was further centrifuged at 17,000×g for 30 minutes at 4° C., and the pellet (crude membrane preparation) washed briefly and resuspended in the assay buffer (approximately 40-50 μg membrane protein or approximately 1 x 10^6 cell equivalent per 100 μl).
(§3) A similar protocol was used to prepare the membrane from fresh rat and frozen human postmortem liver. In all experiments the final membrane preparation was used in the radioreceptor assay within 45 minutes.
(§4) For protein determination, aliquots of crude membrane preparations were washed twice with double distilled water by centrifugation (25,000 ×g) and assayed for protein content, using BSA as the standard. The binding assay was carried out at 4° C.
(§5) The displacement curves were fitted for both single and two classes of binding sites by computer calculated lines, as described.
(§6) Homologous displacement of GnRH-related peptides in membrane homogenates prepared from HepG2 cells and non-cancerous postmortem human liver tissue was studied. Values (mean ± SEM) represent specific binding [B/T, bound over total, in %] determined by subtraction of non-saturable binding in the presence of excess peptides (10^-5 M). Results were obtained from 5 to 7 separated experiments, each carried out in triplicate. The binding data were analyzed by computerized Scatchard analysis (LIGAND) according to Munson and Rodbard.

[2] = test system: HuH-7 cells; experiment: HuH-7 cell proliferation; assay type: cell-based, human; settings: single administration at 10^-7 M, six days in culture
Procedure: (§7) HepG2 or HuH-7 cells were maintained in 75-cm^2 flasks at 37° C. under a humidified atmosphere of 5% CO2 in modified Minimum Essential Medium (Gibco-BRL) supplemented with 10% fetal bovine serum, 200mM 1-Glutamine (1%), Penicillin (1000 IU/ml), streptomycin (100 μg/ml) and sodium bicarbonate (0.15%). Cells grown to confluence were harvested following mild trypsinization and wash (twice by slow centrifugation; 400 g for 10 minutes) in normal culture medium.
(§8) Approximately 50,000 cells in 1.0 ml culture media were plated in 24 deep well plates (Flacon). This time was considered day -1. Cells were allowed to grow for one day. The growing cells were then treated with various hormones (at day 0) prepared aseptically in culture media immediately prior to addition. The final volume was maintained at 1 ml. The plates were then incubated at 37° C. for a period of 4 to 6 days, as described above.
(§9) Cells in each well were harvested by removal of culture media and incubation with 0.5 ml 0.25% trypsin and 1.75 mM EDTA for 30 minutes at 37° C. Cells were then transferred into 1.5 ml microfuge tubes and centrifuged at 100g for 10 minutes. The supernatant was removed and the pellet was resuspended in a final volume of 200 μl of culture media containing 10% trypan blue.
Cells were then counted using a hemocytometer. […]

[3] = test system: HuH-7 cells; experiment: 3H-thymidine uptake in HuH-7 cells; assay type: cell-based, human; settings: 10^-7 M, time-related
Procedure: (§10) […] 3H-thymidine (Amersham TRK.120, 102 mCi/mg) was added to each well and was incubated at 37° C. for 4 hours. The media containing unabsorbed 3H-thymidine was aspired off and the cells were washed twice with ice cold phosphate buffered saline (PBS). The cells were then fixed with 5% trichloro acetic acid (TCA) for 20 minutes and washed twice with double distilled water. The fixed cells were solubilized with 0.2 ml NCS tissue solubilizer (Amersham) and counted for radioactivity using a liquid scintillation counter (50% efficiency).

[4] = test system: HepG2 cells; experiment: 3H-thymidine uptake in HepG2 cells; assay type: cell-based, human
Procedure: as §10
The effect of GnRH-related peptides on ^3 H-thymidine incorporation was tested to assess changes in DNA synthesis of HepG2 cells (FIGS. 7A and 7B). Methods used were as previous described.

[5] = test system: HepG2 cells; experiment: HepG2 cell proliferation (cell counting); assay type: cell-based
Procedure: as §7, §8, §9
Cells were then counted using a hemocytometer. The average cell mortality was less than 5.0% and was not different among different treatment groups. Each value represents the mean and standard error of several experiments (n>3), each carried out in quadruplicate incubations at each time point and hormone concentration.
(§11) The potency of various GnRH-related peptides in terms of binding (equilibrium dissociation constant; kd) and growth suppression activity in the human hepatocarcinoma derived cell line HepG2 was studied. […] Data analysis was performed as described.
The effect of GnRH-related peptides on the proliferation of the human hepatoma derived cell line HepG2 was studied. Values (mean ± SEM) represent the percent change with respect to initial cell number at day 0 over a period of six days in culture.
The dose response curves were analyzed by a computerized, four parameter curve fitting program (ALLFIT) as described. The result of time-related response on cell proliferation was analyzed using a two-way ANOVA with multiple comparison means of using computerized statistical package (SYSTAT).

[6] = molecular target: GnRH binding sites (normal rat liver); experiment: GnRH in vitro binding to normal rat liver membrane preparation; settings: Labeled ligand 125I-[D-Lys6]-GnRH; 95% confidence interval in parentheses; read-out: Receptor Binding Activity (Kd, nM) Normal Rat Liver
Procedure: as §1, §2, §3, §4, §5

[7] = molecular target: GnRH receptor (HepG2 membrane preparation); experiment: GnRH in vitro binding to HepG2 membrane preparation (radioreceptor assay); set-up: species or system human; settings: Labeled ligand 125I-[D-Lys6]-GnRH; 95% confidence interval in parentheses; 4° C.
Procedure: as §1, §2, §4, §5, §11, §6

CC(C)C[C@H](NC(=O)[C@@H](CCCCN)NC(=O)[C@H](Cc1ccc(O)cc1)NC(=O)[C@H](CO)NC(=O)[C@H](Cc1c[nH]c2ccccc12)NC(=O)[C@H](Cc1c[nH]cn1)NC(=O)[C@@H]1CCC(=O)N1)C(=O)N[C@@H](CCCNC(=N)N)C(=O)N1CCC[C@H]1C(=O)NCC(N)=O [[D-Lys^6]-GnRH, pGlu-His-Trp-Ser-Tyr-DLys-Leu-Arg-Pro-Gly-NH2]
Kd [1]: 3300 nM
Effect on HuH-7 cell proliferation [2]: significantly suppressed; also recorded: totally inhibited
3H-thymidine incorporation in HuH-7 cells [3]: blocked further ^3 H-thymidine incorporation above day 1 level
3H-thymidine incorporation in HepG2 cells ([4]; 10^-7 M, over 4 days of incubation): blocked further ^3 H-thymidine incorporation above the day 1 level
ED50, inhibition of DNA synthesis (3H-thymidine incorporation) in HepG2 cells ([4]; after 72 hours in culture): 0.18 ± 0.03 nM
ED50, inhibition of DNA synthesis (3H-thymidine incorporation) in HepG2 cells ([4]; after 96 hours in culture): 0.14 ± 0.02 nM
Suppression of HepG2 growth ED50 [5]: 2.00 nM
HepG2 doubling time ([5]; 10 nM, calculated over 4 days of growth): 65 ± 4.9 h
HepG2 doubling time ([5]; 100 nM, calculated over 4 days of growth): 77 ± 6.7 h
HepG2 doubling time ([5]; 1000 nM, growth phase, over 4 days of growth): 105 ± 10.0 h
Effect on HepG2 cell proliferation, repeated administration ([5]; 10^-7 M every two days, six days in culture): significantly suppressed
Reversal of HepG2 growth suppression after removing the peptide or adding GnRH antagonist ([5]; after three days of treatment): can not be reversed; also recorded: cannot be reversed
Suppression of HepG2 growth ED50 ([5]; calculated at day 4 of growth): 2.00 ± 0.9 nM
Effect on HepG2 cell proliferation ([5]; single administration at 10^-7 M, six days in culture): significantly suppressed
Kd [6]: 769 nM
Kd [7]: 9.17 nM
